Assay results reported in patent US20250163088A1, “HALF-SANDWICH TRANSITION METAL COMPLEXES AND USES THEREOF” (DEBRECENI EGYETEM, priority 2021, published 2025).
Like-named read-outs stand apart in the source and are kept apart here.

Assays:
[1] = tested on: A2780 human ovarian carcinoma cells; test: SRB proliferation assay (48 h) on A2780 cells; type: cell-based; settings: for cytostatic properties in the screen (long-term SRB and short-term MTT assays): A2780 cells, 100 μM-0.0017 μM
Method: The compounds were tested in an assay aiming to assess short term toxicity (methylthiazolyldiphenyl-tetrazolium bromide (MTT) reduction assay, 4 hours) and a long term cytostasis or cytotoxicity (sulphorhodamine B (SRB) proliferation assay, 48 hours) on A2780 human ovarian carcinoma cells.
(§1) SRB accumulation assay assesses protein content in a sample and was used to assess cell proliferation. SRB accumulation assay was performed similarly to (Fodor et al., 2016) as follows. Cells were seeded in 96-well plates. The next day cells were treated with the compounds for 48 hours in the concentrations indicated in a cell incubator. At the end of treatment cells were fixed with 10% trichloroacetic acid (TCA). Fixed cells were stained with SRB (0.4 m/V % dissolved in 1% acetic acid) for 60 minutes. Fixed cells were washed in 1% acetic acid 3 times; acetic acid was removed and cells were left to dry. Protein-bound SRB was released by adding 100 μl 10 mM Tris base. Plates were measured in a plate photometer (Thermo Scientific Multiscan GO spectrophotometer, Waltham, MA, USA) at 540 nm. On each plate wells were designed to contain untreated cells. In calculations the readings for these wells was considered as 1 and all readings were expressed relative to these values.
Statistical analysis was performed using 8.0.1 version of Graphpad Prism. Values were tested for normal distribution using the D'Agostino and Pearson normality test. When necessary, values were log normalized or were normalized using the Box-Cox normalization method (Box and Cox, 1964), as indicated in the figure captions.

[2] = tested on: human primary skin fibroblasts; test: SRB proliferation assay (48 h) on primary fibroblasts; type: cell-based; settings: for Fibroblast Hill slope / IC50: SRB 48 h, N/A = cannot be calculated/no effect; for IC50: read-out: Fibroblast IC50
Method: (§2) […]. All compounds were tested on two ovarian cancer cell lines (A2780 and ID8) and on human primary skin fibroblasts (non-transformed, primary cells) in MTT and SRB assays. MTT assays were performed 4 hours post-treatment and indicated rapid toxicity of the compounds, while SRB assays were performed 2 days post-treatment and represent long term cytostasis or toxicity.
as §1
(§3) Statistical analysis was performed using 8.0.1 version of Graphpad Prism. Values were tested for normal distribution using the D'Agostino and Pearson normality test. When necessary, values were log normalized or were normalized using the Box-Cox normalization method (Box and Cox, 1964), as indicated in the figure captions. Nonlinear regression was performed using the built-in “[Inhibitor] vs. response—Variable slope (four parameters), least square fit” utility of Graphpad that yielded IC50 and Hill slope values.

[3] = Solubility / precipitation in the test medium; type: physicochemical
ID8 ovarian cancer cells = test: SRB proliferation assay (48 h) on ID8 cells; type: cell-based; settings: SRB 48 h; for IC50: N/A = cannot be calculated/no effect
Method: as §2, §1, §3

[4] = tested on: cisplatin-resistant A2780 cell line; test: SRB proliferation assay (48 h) on cisplatin-resistant A2780 cells; type: cell-based, human
Method: In this experiment, 6×10^3 cisplatin-resistant A2780 cells were plated to 96 well plates. Cells were treated with the compounds in the concentrations indicated for either 4 hours for an MTT assay or for 48 hours for an SRB assay. Data is represented as average ±SD, from three biological replicates; individual assays were performed in duplicates. Values were normalized for vehicle treated cells, absorbance for vehicle treated cells equals to 1. Each compound was assessed individually. Normality was assessed using the Shapiro-Wilk test. […] Statistical significance was assessed using One-way ANOVA test comparing all points to the smallest concentration. Nonlinear regression was performed on the results of the SRB assay datasets.
Cisplatin resistant cells underwent selection (1 μM cisplatin) once a week for 3 days before plating for any assay.
as §1

[5] = SRB 48 h, nonlinear regression, N/A = cannot be calculated/no effect, read-out: A2780 IC50

2-(2′,3′,4′,6′-Tetra-O-benzoyl-β-D-glucopyranosyl)-5-(pyridin-2-yl)-1,3,4-oxadiazole [Complex L-4]
A2780 SRB Max. (maximal inhibition) ([1]; 48 h): 26.9%

O=C(OC[C@H]1O[C@@H](n2cc(-c3ccccn3)nn2)[C@H](OC(=O)c2ccccc2)[C@@H](OC(=O)c2ccccc2)[C@@H]1OC(=O)c1ccccc1)c1ccccc1 [Complex L-2a, 1-(2′,3′,4′,6′-Tetra-O-benzoyl-β-D-glucopyranosyl)-4-(pyridin-2-yl)-1,2,3-triazole]
effect on primary human fibroblasts (SRB), in words [2]: no effect
cytostatic effect in long-term SRB assays on A2780 and ID8 cells, in words ([1]; 48 h): none of the corresponding ligands (L-2a, L-4, L-6, L-8) had cytostatic properties
cytostatic properties in the screen (long-term SRB and short-term MTT assays) [1]: no biological activity

O=C(OC[C@H]1O[C@@H](n2cc(-c3ccc4ccccc4n3)nn2)[C@H](OC(=O)c2ccccc2)[C@@H](OC(=O)c2ccccc2)[C@@H]1OC(=O)c1ccccc1)c1ccccc1 [Complex L-2b, 1-(2′,3′,4′,6′-Tetra-O-benzoyl-β-D-glucopyranosyl)-4-(quinolin-2-yl)-1,2,3-triazole]
cytostatic effect in long-term SRB assays on A2780 and ID8 cells, in words ([1]; 48 h): only little cytostatic activity

O=C(OC[C@H]1O[C@@H](c2nnc(-c3ccccn3)o2)[C@H](OC(=O)c2ccccc2)[C@@H](OC(=O)c2ccccc2)[C@@H]1OC(=O)c1ccccc1)c1ccccc1 [Complex L-4, 2-(2′,3′,4′,6′-Tetra-O-benzoyl-β-D-glucopyranosyl)-5-(pyridin-2-yl)-1,3,4-oxadiazole]
effect on primary human fibroblasts (SRB), in words [2]: no effect
cytostatic effect in long-term SRB assays on A2780 and ID8 cells, in words ([1]; 48 h): none of the corresponding ligands (L-2a, L-4, L-6, L-8) had cytostatic properties
cytostatic properties in the screen (long-term SRB and short-term MTT assays) [1]: no biological activity

CC(=O)OC[C@H]1O[C@@H](c2nnc(-c3ccccn3)o2)[C@H](OC(C)=O)[C@@H](OC(C)=O)[C@@H]1OC(C)=O [Complex L-5, 2-(2′,3′,4′,6′-Tetra-O-acetyl-β-D-glucopyranosyl)-5-(pyridin-2-yl)-1,3,4-oxadiazole]
A2780 SRB Max. (maximal inhibition) ([1]; 48 h): 28.5%

O=C(O[C@@H]1[C@@H](OC(=O)c2ccccc2)[C@H](c2nnc(-c3ccccn3)o2)OC[C@H]1OC(=O)c1ccccc1)c1ccccc1 [Complex L-6, 2-(2′,3′,4′-Tri-O-benzoyl-β-D-xylopyranosyl)-5-(pyridin-2-yl)-1,3,4-oxadiazole]
effect on primary human fibroblasts (SRB), in words [2]: no effect
cytostatic effect in long-term SRB assays on A2780 and ID8 cells, in words ([1]; 48 h): none of the corresponding ligands (L-2a, L-4, L-6, L-8) had cytostatic properties
cytostatic properties in the screen (long-term SRB and short-term MTT assays) [1]: no biological activity
solubility of the free ligand for testing [3]: insoluble

O=C(OC[C@H]1O[C@@H](c2nnc(-c3ccccn3)o2)[C@H](OC(=O)c2ccccc2)[C@@H](OC(=O)c2ccccc2)[C@H]1OC(=O)c1ccccc1)c1ccccc1 [Complex L-8, 2-(2′,3′,4′,6′-Tetra-O-benzoyl-β-D-galactopyranosyl)-5-(pyridin-2-yl)-1,3,4-oxadiazole]
effect on primary human fibroblasts (SRB), in words [2]: no effect
cytostatic effect in long-term SRB assays on A2780 and ID8 cells, in words ([1]; 48 h): none of the corresponding ligands (L-2a, L-4, L-6, L-8) had cytostatic properties
cytostatic properties in the screen (long-term SRB and short-term MTT assays) [1]: no biological activity

c1ccc(-n2cc(-c3ccccn3)nn2)cc1 [Complex L-13, 1-phenyl-4-(pyridine-2-yl)-1,2,3-triazole]
cytostatic activity on A2780 cells in SRB assays, in words ([1]; 48 h): None of the free ligands, L-13 or L-14 had cytostatic activity

c1ccc(-c2nnc(-c3ccccn3)o2)cc1 [Complex L-14, 2-phenyl-5-(pyridine-2-yl)-1,3,4-oxadiazole]
cytostatic activity on A2780 cells in SRB assays, in words ([1]; 48 h): None of the free ligands, L-13 or L-14 had cytostatic activity

CCCCCCCC(=O)OC[C@H]1O[C@@H](n2cc(-c3ccccn3)nn2)[C@H](OC(=O)CCCCCCC)[C@@H](OC(=O)CCCCCCC)[C@@H]1OC(=O)CCCCCCC [L-C7, 1-(2′,3′,4′,6′-Tetra-O-octanoyl-β-D-glucopyranosyl)-4-(pyridin-2-yl)-1,2,3-triazole]
solubility of the free ligand for testing [3]: insoluble

CNCc1ccc(-c2[nH]c3cc(F)cc4c3c2CCNC4=O)cc1 [Rucaparib, rucaparib]
cell proliferation, rucaparib alone ([1]; 3 μM, SRB 48 h): reduced cell proliferation

[NH2][Pt]1([NH2])[O]C(=O)C2(CCC2)C(=O)[O]1 [carboplatin]
effect on primary human fibroblasts (SRB), in words ([2]; 48 h): no effect

N.N.[Cl][Pt][Cl] [cisplatin]
Fibroblast Hill slope [2]: 1.53
IC50 [2]: 11900 nM
ID8 Hill slope (ID8 ovarian cancer cells): 0.99
IC50 (ID8 ovarian cancer cells): 10800 nM
cisplatin resistant A2780 SRB Max. (maximal inhibition) ([4]; 48 h): 100%
fold change of IC50, cisplatin resistant vs. cisplatin sensitive A2780 ([4]; SRB assay): 13.6 fold
IC50 ([4]; SRB assay, 48 h): 16500 nM
A2780 SRB Hill ([1]; 48 h): 1.20
IC50 ([1]; 48 h, read-out: A2780 SRB IC50): 1210 nM
A2780 Hill slope ([1]; SRB 48 h, nonlinear regression): 1.20
IC50 [1, 5]: 1210 nM
IC50 ([1]; SRB assay, 48 h, read-out: IC50 value on (cisplatin-sensitive) A2780 cells): 1210 nM

O=C1[O][Pt]2([NH][C@@H]3CCCC[C@H]3[NH]2)[O]C1=O [oxaliplatin]
effect on primary human fibroblasts (SRB), in words ([2]; 48 h): no effect
Fibroblast Hill slope [2]: 0.37
IC50 [2]: 830 nM
ID8 Hill slope (ID8 ovarian cancer cells): 1.58
IC50 (ID8 ovarian cancer cells): 4590 nM
A2780 Hill slope ([1]; SRB 48 h, nonlinear regression): 1.27
IC50 [1, 5]: 120 nM
